Results on 23 molecules are retold here after patent US20070004660A1, “Synergistic Modulation of Flt3 Kinase Using Alkylquinolines and Alkylquinazolines” (priority 2005, published 2007).

This assay deals with T1, wild-type FLT3 receptor (Homo sapiens, UniProt P36888).
T1 construct: host or cells: Baf3 (murine B cell lymphoma line), stably transfected
T1 sequence (P36888 27-993): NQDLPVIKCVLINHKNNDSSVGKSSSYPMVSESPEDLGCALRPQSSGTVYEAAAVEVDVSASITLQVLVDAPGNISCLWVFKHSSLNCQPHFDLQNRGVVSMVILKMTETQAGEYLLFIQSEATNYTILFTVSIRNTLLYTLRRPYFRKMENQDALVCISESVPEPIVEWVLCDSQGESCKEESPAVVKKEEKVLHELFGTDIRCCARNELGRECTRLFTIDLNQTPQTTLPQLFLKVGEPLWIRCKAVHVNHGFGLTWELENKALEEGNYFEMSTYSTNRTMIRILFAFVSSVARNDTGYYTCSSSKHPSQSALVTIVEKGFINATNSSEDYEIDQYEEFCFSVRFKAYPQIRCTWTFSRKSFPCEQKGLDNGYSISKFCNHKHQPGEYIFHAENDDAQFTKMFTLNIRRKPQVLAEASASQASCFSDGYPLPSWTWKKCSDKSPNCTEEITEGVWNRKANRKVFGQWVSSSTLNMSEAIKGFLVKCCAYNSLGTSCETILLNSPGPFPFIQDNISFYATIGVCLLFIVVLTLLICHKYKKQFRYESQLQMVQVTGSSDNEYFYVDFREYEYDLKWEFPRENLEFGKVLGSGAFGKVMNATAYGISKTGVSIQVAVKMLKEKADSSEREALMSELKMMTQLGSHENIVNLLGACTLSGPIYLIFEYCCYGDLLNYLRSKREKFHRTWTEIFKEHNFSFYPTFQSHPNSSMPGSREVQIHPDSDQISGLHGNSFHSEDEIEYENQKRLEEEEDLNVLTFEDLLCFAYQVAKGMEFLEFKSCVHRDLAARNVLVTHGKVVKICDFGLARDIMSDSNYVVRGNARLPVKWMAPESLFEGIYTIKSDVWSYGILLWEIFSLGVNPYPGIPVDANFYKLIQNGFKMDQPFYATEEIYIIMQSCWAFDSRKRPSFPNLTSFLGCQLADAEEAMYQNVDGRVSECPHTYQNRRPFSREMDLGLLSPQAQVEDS
In words: Cell-based FLT3 receptor ELISA (FLT ligand-induced phosphorylation in Baf3 FLT3 cells). The settings on record: 100 ng/mL Flt ligand, uncertainty ±20%. In short, it runs like this:
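Receptor phosphotyrosine measured by sandwich ELISA (anti-FLT3 capture, HRP anti-pTyr, luminescence) in FLT3-transfected murine Baf3 cells given 1 h compound pretreatment and 10 min 100 ng/mL FLT ligand after overnight low-serum starvation; triplicates, IC50 from nonlinear regression.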
A general note: ELISA stands for enzyme-linked immunosorbent assay.
For `CS(=O)(=O)NCCCOc1ccc2c(C3CCN(C(=O)Nc4ccc(N5CCCC5)nc4)CC3)ncnc2c1` [Example 86, 4-[7-(3-Methanesulfonylamino-propoxy)-quinazolin-4-yl]-piperidine-1-carboxylic acid (6-pyrrolidin-1-yl-pyridin-3-yl)-amide], inhibition was half-maximal at 0.009 µM (IC50). In other words, the single-digit nanomolar range. The molecule `COc1cc2ncnc(C3CCN(C(=O)Nc4ccc(-c5cncnc5)cc4)CC3)c2cc1OC` [Example 58, 4-(6,7-Dimethoxy-quinazolin-4-yl)-piperidine-1-carboxylic acid (4-pyrimidin-5-yl-phenyl)-amide] came in with an IC50 of 0.265 µM.

Regarding `O=C(Nc1ccc(N2CCOCC2)cc1)N1CCC(c2ncnc3cc(OCCCN4CCN(CCO)CC4)ccc23)CC1` [Example 116, 4-(7-{3-[4-(2-Hydroxy-ethyl)-piperazin-1-yl]-propoxy}-quinazolin-4-yl)-piperidine-1-carboxylic acid (4-morpholin-4-yl-phenyl)-amide], it took 0.025 µM to reach half-maximal inhibition (IC50). With `CN1CCN(CCCOc2ccc3c(C4CCN(C(=O)Nc5ccc(N6CCOCC6)c(F)c5)CC4)ncnc3c2)CC1` [Example 81, 4-{7-[3-(4-Methyl-piperazin-1-yl)-propoxy]-quinazolin-4-yl}-piperidine-1-carboxylic acid (3-fluoro-4-morpholin-4-yl-phenyl)-amide], the IC50 was 0.028 µM. `CN1CCN(CCCOc2ccc3c(C4CCN(C(=O)Nc5ccc(N6CCCC6)nc5)CC4)ncnc3c2)CC1` [Example 104, 4-{7-[3-(4-Methyl-piperazin-1-yl)-propoxy]-quinazolin-4-yl}-piperidine-1-carboxylic acid (6-pyrrolidin-1-yl-pyridin-3-yl)-amide] registered an IC50 of 0.016 µM. `CN1CCN(CCCOc2ccc3c(C4CCN(C(=O)Nc5ccc(N6CCOCC6)nc5)CC4)ncnc3c2)CC1` [Example 80, 4-{7-[3-(4-Methyl-piperazin-1-yl)-propoxy]-quinazolin-4-yl}-piperidine-1-carboxylic acid (6-morpholin-4-yl-pyridin-3-yl)-amide] came in with an IC50 of 0.019 µM. Take `COc1cc2ncnc(C3CCN(C(=O)Nc4ccc(Oc5ccccc5)cc4)CC3)c2cc1OC` [Example 47, 4-(6,7-Dimethoxy-quinazolin-4-yl)-piperidine-1-carboxylic acid (4-phenoxy-phenyl)-amide]: the midpoint of inhibition, the IC50, lay at 0.008 µM. For `CN1CCC(COc2ccc3c(C4CCN(C(=O)Nc5ccc(OC6CCC6)nc5)CC4)ncnc3c2)CC1` [Example 107, 4-[7-(1-Methyl-piperidin-4-ylmethoxy)-quinazolin-4-yl]-piperidine-1-carboxylic acid (6-cyclobutoxy-pyridin-3-yl)-amide], the IC50 is 0.021 µM.

`CN(C)C(=O)N1CCN(CCCOc2ccc3c(C4CCN(C(=O)Nc5ccc(N6CCOCC6)cc5)CC4)ncnc3c2)CC1` [Example 120, 4-(3-{4-[1-(4-Morpholin-4-yl-phenylcarbamoyl)-piperidin-4-yl]-quinazolin-7-yloxy}-propyl)-piperazine-1-carboxylic acid dimethylamide] gave an IC50 of 0.023 µM. The IC50 values of the last two molecules are within 1.5-fold of each other. In the case of `COc1cc2ncnc(C3CCN(C(=O)Nc4ccc(-c5ccco5)cc4)CC3)c2cc1OC` [Example 59, 4-(6,7-Dimethoxy-quinazolin-4-yl)-piperidine-1-carboxylic acid (4-furan-2-yl-phenyl)-amide], the IC50 came to 0.027 µM. In turn, `COCCCOc1ccc2c(C3CCN(C(=O)Nc4ccc(N5CCOCC5)cc4)CC3)ncnc2c1` [Example 78, 4-[7-(3-Methoxy-propoxy)-quinazolin-4-yl]-piperidine-1-carboxylic acid (4-morpholin-4-yl-phenyl)-amide] registered an IC50 of 0.02 µM. For the molecule `CC(C)Oc1ccc(NC(=O)N2CCC(c3ncnc4ccc(I)cc34)CC2)cc1` [Example 11, 4-(6-Iodo-quinazolin-4-yl)-piperidine-1-carboxylic acid (4-isopropoxy-phenyl)-amide], inhibition was half-maximal at 1.4 µM (IC50). `CC(C)Oc1ccc(NC(=O)N2CCC(c3ncnc4ccc(C#CCN5CCCCC5)cc34)CC2)cc1` [Example 14, 4-[6-(3-Piperidin-1-yl-prop-1-ynyl)-quinazolin-4-yl]-piperidine-1-carboxylic acid (4-isopropoxy-phenyl)-amide] returned an IC50 of 0.186 µM. The molecule `COc1cc2ncnc(C3CCN(C(=O)Nc4ccc(C(C)(C)C)cc4)CC3)c2cc1OC` [Example 53, 4-(6,7-Dimethoxy-quinazolin-4-yl)-piperidine-1-carboxylic acid (4-tert-butyl-phenyl)-amide] displayed an IC50 of 0.005 µM.

`O=C1CCCN1CCOc1ccc2c(C3CCN(C(=O)Nc4ccc(N5CCOCC5)cc4)CC3)ncnc2c1` [Example 85, 4-{7-[2-(2-Oxo-pyrrolidin-1-yl)-ethoxy]-quinazolin-4-yl}-piperidine-1-carboxylic acid (4-morpholin-4-yl-phenyl)-amide]: the IC50 was 0.075 µM. This IC50 lies about 15-fold higher than the previous one.

Turning to `CN1CCC(COc2ccc3c(C4CCN(C(=O)Nc5ccc(N6CCCC6)nc5)CC4)ncnc3c2)CC1` [Example 99, 4-[7-(1-Methyl-piperidin-4-ylmethoxy)-quinazolin-4-yl]-piperidine-1-carboxylic acid (6-pyrrolidin-1-yl-pyridin-3-yl)-amide], inhibition was half-maximal at 0.014 µM (IC50). Against the preceding molecule, the IC50 is about 5.4-fold lower. The molecule `CC(C)Oc1ccc(NC(=O)N2CCC(c3ncnc4cc(OCCN5CCOC5=O)ccc34)CC2)cc1` [Example 79, 4-{7-[2-(2-Oxo-oxazolidin-3-yl)-ethoxy]-quinazolin-4-yl}-piperidine-1-carboxylic acid (4-isopropoxy-phenyl)-amide] displayed an IC50 of 0.017 µM. The IC50 values of the last two molecules are within 1.5-fold of each other. For `CCOc1ccc(NC(=O)N2CCC(c3ncnc4cc(OC)c(OC)cc34)CC2)cc1` [Example 44, 4-(6,7-Dimethoxy-quinazolin-4-yl)-piperidine-1-carboxylic acid (4-ethoxy-phenyl)-amide] the value was 0.163 µM; for `CC(C)Oc1ccc(NC(=O)N2CCC(c3ncnc4ccc(OCCCN5CCN(C)CC5)cc34)CC2)cc1` [Example 76, 4-{6-[3-(4-Methyl-piperazin-1-yl)-propoxy]-quinazolin-4-yl}-piperidine-1-carboxylic acid (4-isopropoxy-phenyl)-amide], 0.096 µM. As for `CCC(C)c1ccc(NC(=O)N2CCC(c3ncnc4cc(OC)c(OC)cc34)CC2)cc1` (centres unmarked) [Example 52, 4-(6,7-Dimethoxy-quinazolin-4-yl)-piperidine-1-carboxylic acid (4-sec-butyl-phenyl)-amide], the figure is 0.007 µM.

`COc1cc2ncnc(C3CCN(C(=O)Nc4ccc(C5=CCN(C(=O)OC(C)(C)C)CC5)cc4)CC3)c2cc1OC` [Example 61, 4-(4-{[4-(6,7-Dimethoxy-quinazolin-4-yl)-piperidine-1-carbonyl]-amino}-phenyl)-3,6-dihydro-2H-pyridine-1-carboxylic acid tert-butyl ester] showed an IC50 of 1.8 µM. As for `O=C(Nc1ccc(N2CCOCC2)nc1)N1CCC(c2ncnc3cc(OCCN4CCOC4=O)ccc23)CC1` [Example 91, 4-{7-[2-(2-Oxo-oxazolidin-3-yl)-ethoxy]-quinazolin-4-yl}-piperidine-1-carboxylic acid (6-morpholin-4-yl-pyridin-3-yl)-amide], the figure is 0.006 µM.

Take `CC(=O)N1CCN(CCCOc2ccc3c(C4CCN(C(=O)Nc5ccc(N6CCOCC6)cc5)CC4)ncnc3c2)CC1` [Example 117, 4-{7-[3-(4-Acetyl-piperazin-1-yl)-propoxy]-quinazolin-4-yl}-piperidine-1-carboxylic acid (4-morpholin-4-yl-phenyl)-amide]: the IC50 was 0.088 µM.

Usually IC50 stands for the point on the concentration scale where inhibition reaches its midpoint.
